Earlier results, collected in US20090214682A1, “Composition and methods for weight loss in a subject” (priority 2008, published 2009).
Where two headings read alike, the source gives them in different places.

Experiments:
[1] = not given; remark: listed apart in the source
[2] = rats
[3] = rats, high fat diet, 12 weeks
[4] = obese women
[5] = vs placebo
[6] = not given; remark: listed apart in the source
[7] = 8 weeks, overweight subjects, vs placebo
[8] = not given; remark: listed apart in the source

Molecule: [Cr] [Chromium]
- body fat (combined with exercise): reduce body fat
- lean mass (combined with exercise): increase lean mass
- HDL cholesterol (human, in vivo): increase HDL

Molecule: O=C(O)CC(O)(C(=O)O)C(O)C(=O)O (stereo not shown) [HCA, 1,2-dihydroxypropane-1,2,3-tricarboxylic acid]
- caloric intake ([1]; clinical studies): reduction in caloric intake
- blood cholesterol profile ([1]; daily, moderate exercise, 8 weeks): improved blood cholesterol profile
- weight loss ([1]; daily, moderate exercise, 8 weeks, vs placebo): increased weight loss
- serotonin levels ([1]; human, in vivo): significantly increased
- fat oxidation during exercise ([1]; untrained men and women): increasing fat oxidation
- appetite [2]: repress appetite
- fatty acid synthesis [2]: inhibit fatty acid synthesis

Molecule: Cn1c(=O)c2c(ncn2C)n(C)c1=O [caffeine, 3,7-dihydro-1,3,7-trimethyl-1H-purine-2,6-dione]
- body fat [3]: generally reduced
- abdominal adipose tissue weight ([3]; vs control group): significant decrease
- serum triglyceride levels ([3]; vs control group): significant decrease
- weight loss [4]: Significant weight loss

Molecule: CCCCCCCCCCCC(C[C@@H]1OC(=O)[C@H]1CCCCCC)OC(=O)[C@H](CC(C)C)NC=O (stereo partly drawn) [orlistat, N-formyl-L-leucine-1-[[(2S,3S)-3-hexyl-4oxo-2-oxetanyl]methyl]dodecyl ester]
- LDL cholesterol levels ([5]; one year treatment): greater improvements then placebo
- total serum cholesterol ([5]; one year treatment): greater improvements then placebo
- weight loss ([5]; persons with type 2 diabetes): more significant weight loss then the placebo group
- tolerability ([6]; 60 mg vs larger dose): generally better tolerated
- efficacy for weight loss relative to prescription dose ([6]; OTC 60 mg vs prescription 120 mg): about 85%
- inhibition of absorption of ingested fats ([6]; OTC dose 60 mg): about 25%
- average weight loss of initial body weight ([6]; OTC dose 60 mg, over 16 weeks): about 5%

Molecule: Cn1c(=O)c2[nH]cnc2n(C)c1=O [theophylline, 3,7-dihydro-1,3-dimethyl-1H-purine-2,6-dione]
- body fat [3]: generally reduced

Molecule: chromium polynicotinate
- body fat [7]: significant loss of body fat
- systolic blood pressure ([8]; vs control groups): effective in lowering systolic blood pressure
- free radical damage in liver and kidney tissue ([8]; vs controls): less free radical damage
